Reference: PMC10711279 (Frontiers in Pharmacology, 2023)

Columns and labels:
[1] = parameters: method as in Turner and Merlis, 1959; conditions: dose range 5–20 mg; ref Turner and Merlis, 1959; cited from earlier work
[2] = ref Vogt et al., 2023; cited from earlier work
[3] = Blood plasma levels (LC-MS/MS) after DMT/harmine administration
Experimental: Blood samples were collected from the left antecubital vein at −30 (baseline), −15, 0, 15, 30, 45, 60, 90, 120, 180, 240, 300 and 360 min after the first DMT administration for analysis of blood plasma levels of harmine, DMT and the two major DMT metabolites 3-indole acetic acid (3-IAA) and N-methyl-tryptamine (NMT). […] Blood samples were immediately centrifuged for 10 min at 2000 RCF. Then, plasma was transferred to Eppendorf tubes, shock-frozen in liquid nitrogen (∼-196°C), and stored at −80°C until assayed.
For the sample preparation 200 µL of plasma were spiked with 50 µL internal standard (IS) mixture (40 ng/mL DMT-d6 and harmine-d3) and 50 µL methanol (MeOH). Proteins were precipitated by adding 400 µL of acetonitrile (ACN). The samples were shaken for 10 min and centrifuged for 5 min at 10,000 rpm. 350 μL of the supernatant was transferred into an auto-sampler vial, evaporated to dryness under a gentle stream of nitrogen at room temperature and reconstituted in 100 µL eluent-mixture (98:2, v/v). External calibrator and quality control (QC) samples were prepared accordingly, replacing the MeOH with a calibrator or QC solution mixtures. Calibrator and QC samples containing 3-IAA were prepared separately, replacing plasma with water. The calibration ranges were 0.5–500 ng/mL for DMT and DMT-N-oxide, 2.5–120 ng/mL for harmine, 1–80 ng/mL for harmol, 0.015–10 ng/mL for NMT and 35–3,000 ng/mL for 3-IAA.
Samples were analyzed on an ultra-high performance liquid chromatography (UHPLC) system (Thermo Fisher, San Jose, CA) coupled to a linear ion trap quadrupole mass spectrometer 5,500 (Sciex, Darmstadt, Germany). The mobile phases consisted of a mixture of water (eluent A) and ACN (eluent B), both containing 0.1% formic acid (v/v). Using a Kinetex C18 column 50 × 2.1 mm, 2.6 µm (Phenomenex, Aschaffenburg, Germany), the flow rate was set to 0.5 mL/min with the following gradient: starting conditions 98% eluent A, decreasing to 70% within 4 min, followed by a quick decrease to 5% within 1 min, holding for 0.5 min and returning to starting conditions for 1.5 min, resulting in a total runtime of 7 min. The mass spectrometer was operated in positive electrospray ionization mode with scheduled multiple reaction monitoring. The following transitions of precursor ions to product ions were selected as quantifier ions: DMT m/z 189→115, DMT-N-oxide m/z 205→117, harmine m/z 213→169, harmol m/z 199→131, NMT m/z 175→144 and 3-IAA m/z 176→103.

[4] = in vivo; cited from earlier work
[5] = day 1, 250 mg oral harmine + 30 mg oral DMT
[6] = day 2, 250 mg oral harmine + 50 mg oral DMT
[7] = day 3, 150 mg buccal harmine + max 50 mg intranasal DMT
[8] = day 4, 200 mg buccal harmine + max 90 mg intranasal DMT

Structure (SMILES) | Peak of the mean plasma concentrations [3, 5] | Peak of the mean plasma concentrations [3, 6] | Peak of the mean plasma concentrations [3, 7] | Peak of the mean plasma concentrations [3, 8] | Duration of action [4] | other results
CN(C)CCc1c[nH]c2ccccc12 [DMT freebase, N,N-dimethyltryptamine] |  |  |  |  |  | Effect of intranasal administration [1]: ineffective
CN(C)CCc1c[nH]c2ccccc12 [DMT, N,N-dimethyltryptamine] | 27.9 ± 15.5 ng/mL | 23.6 ± 11.9 ng/mL | 23.9 ± 5.0 ng/mL | 33.1 ± 9.3 ng/mL |  | Plasma elimination half-life [2]: 5 to 10 min
CCN(CC)C(=O)[C@@H]1C=C2c3cccc4[nH]cc(c34)C[C@H]2N(C)C1 [LSD] |  |  |  |  | 10 to 12 h | 
COc1ccc2c(c1)[nH]c1c(C)nccc12 [harmine] | 125.5 ± 111.2 ng/mL | 104.8 ± 100.5 ng/mL | 93.9 ± 33.5 ng/mL | 132.4 ± 111.6 ng/mL |  | Tmax ([3]; human, plasma, po): 1 to 4.5 h
CN(C)CCc1c[nH]c2cccc(OP(=O)(O)O)c12 [psilocybin] |  |  |  |  | 4 to 6 h | 
